One data set has as its system miR-135a. The experiment in a line: Real time PCR of miR-135a in raphe nucleus after antidepressant treatment. It counts as in vivo, mouse. The note with it: mice, 20 mg/kg i.p., acute or chronic administration. Here is the method: Mice received i.p. injection of tricyclic-Imipramine, or SSRI-Fluoxetine, or NRI-Reboxetine (20 mg/kg in saline) or saline.
Blunted 14G syringes were used to extract the RN region from 3 mm slices removed from the matrix.
(§1) For behavioral testing, mice were injected with 20 mg/kg SSRI i.p. 30 minutes prior to the test.
Samples were then analyzed using SYBR® Green

The subject of data set [1] is mice. Briefly: Tail suspension test. The note with it: miR135b KD and control KD mice. It counts as in vivo, mouse. As to the method: The tail suspension test was performed in the TSE Tail Suspension Monitor (TSE Systems, Bad Homburg, Germany). Each mouse was taped by the tip of its tail, and suspended from the force sensor for 10 minutes. Time spent immobile and time spent struggling were calculated and recorded by the software based on pre-set thresholds.

Another data set relates to Slc6a4 3′UTR. Briefly: Luciferase reporter assay, Slc6a4 3′UTR. It counts as cell-based, mouse. The note with it: HEK293T cells, miR over-expressing vector vs empty vector. As to the method:
(§2) 3′UTR sequences of Slc6a4, Htr1a, MaoA and Tph2 were PCR amplified from mouse genomic DNA, or total brain cDNA. 3′UTR PCR fragments were ligated into pGEM-T easy vector (Promega) according to the manufacturer's guidelines, and further subcloned into a single NotI site at the 3′ end of luciferase in the Psicheck2 reporter plasmid (Promega). […] Cloning orientation was verified by diagnostic cuts and by sequencing.
(§3) HEK293T cells were grown on poly-L-lysine in 48-well format to a 70-85% confluence and transfected using Polyethyleneimine with the following plasmids: 5 ng of Psicheck2-3′UTR plasmid and 215 ng of over-expressing vector for a specific miRNA, or empty-miR-vec over-expression plasmids. 24 hours following transfection cells were lysed and luciferase reporters activity were assayed as previously described [Chen A. et al. Mol Endocrinol (2005) 19: 441-58]. Renilla luciferase values were normalized to control firefly luciferase levels (transcribed from the same vector but not affected by 3′UTR tested) and averaged across six well repetitions per condition.
3′ UTRs sequences of Slc6a4 and Htr1a were PCR amplified from mouse genomic DNA. 3′UTRs PCR fragments were ligated into pGEM-T easy vector (Promega) according to the manufacturer's guidelines, and further sub-cloned into a single NotI site at the 3′ end of luciferase in the psiCHECK-2 reporter plasmid (Promega). […]
(In general: Reporter assays use an easily measured gene product as a stand-in for the process of interest.)

The next data set concerns Htr1a 3′UTR. The experiment in a line: Luciferase reporter assay, Htr1a 3′UTR. It counts as cell-based, mouse. The settings on record: for repression of Htr1a 3′UTR (luciferase): HEK293T cells, miR over-expressing vector vs empty vector; for seed match through which Htr1a 3′UTR is repressed: Htr1a miR-135 seed matches mutated individually or both. As to the method:
as §2, §3
3′UTR sequence of Htr1a was PCR amplified from mouse genomic DNA. 3′UTR PCR fragments were ligated into pGEM-T easy vector (Promega) according to the manufacturer's guidelines, and further subcloned into a single NotI site at the 3′ end of luciferase in the Psicheck2 reporter plasmid (Promega). Cloning orientation was verified by diagnostic cuts and by sequencing.
as §3, with “plasmids:” for “plasmids: 5 ng of”, “Psicheck2-3′UTR plasmid, pre-mmu-miR-182 over-expression in pEGFP” for “Psicheck2-3′UTR”, “plasmid” for “plasmid and 215 ng of over-expressing vector for a specific miRNA,”, “pEGFP plasmid alone (clontech).” for “empty-miR-vec over-expression plasmids.”
3′ UTRs sequences of Slc6a4 and Htr1a were PCR amplified from mouse genomic DNA. 3′UTRs PCR fragments were ligated into pGEM-T easy vector (Promega) according to the manufacturer's guidelines, and further sub-cloned into a single NotI site at the 3′ end of luciferase in the psiCHECK-2 reporter plasmid (Promega). […] Cloning orientation was verified by diagnostic cuts and sequencing.
Twenty-four hours following transfection cells were lysed and luciferase reporter activities were assayed as previously described (Kuperman et al., 2011). […]

Another data set deals with miR-135b. Briefly: Real time PCR of miR-135b in raphe nucleus after antidepressant treatment. The settings on record: mice, 20 mg/kg i.p., acute or chronic administration. (Quantitative PCR measures a nucleic acid by following its amplification.)
The test system of data set [2] is mice. The experiment in a line: Social avoidance test after chronic social defeat. It counts as in vivo, mouse. The settings on record: mice exposed to social defeat, chronic treatment vs saline. Here is the method: Mice were subjected to a social defeat protocol as previously described (Elliott et al., 2010). Briefly, mice were placed in a home cage of an aggressive ICR mouse where they physically interacted for five minutes. […] Perforated clear Plexiglas dividers were then placed between the animals and the mice remained in the same cage for 24 hours to allow sensory contact. The procedure was then repeated with an unfamiliar ICR mouse for 10 consecutive days.
as §1
Social avoidance test: In the social avoidance test, mice were placed in a 15 cm×35 cm arena with a small 15 cm×8 cm neighboring chamber separated by a divider with small open slits allowing full sensory contact. The tested mice were allowed to habituate to the arena for three minutes, and then an unfamiliar ICR mouse was placed in the neighboring chamber for another three minutes. Time spent near the divider was quantified using video tracking by Ethovision software (Noldus, Wageningen, Netherlands). Interaction ratio was calculated by dividing the time the mice spent in a defined area near the unfamiliar ICR to the time the mice spent in the same area during habitation, and multiplied by 100.

In the next data set the test system is miR-19a/b. The experiment in a line: miR-19a/b levels in prefrontal cortex after Reboxetine. It counts as in vivo, mouse. The note with it: mice. The text has this: These animals will be also tested for anxiety like behavior, locomotor activity and memory performance. Furthermore, the levels of expression of miR-19a and miR-19b are examined in different regions of interest (E.G the hippocampus, amygdala and forebrain) following an acute and chronic systemic treatment with the Noradrenaline reuptake inhibitor Reboxetine in WT mice.
The physiological link between miRNA-19 and Adrb1 was studied by assessing the level of miR-19a/b in the prefrontal cortex (PFC) of mice that were injected with Reboxetine, a noradrenalin reuptake inhibitor (NRI), either acutely or chronically (FIGS. 12A-D).

With `CNCCC(Oc1ccc(C(F)(F)F)cc1)c1ccccc1` (stereo not drawn) [Fluoxetine], the “miR-135a expression levels in the RN” value in the data set on miR-135a was “robust increase”. In the data set on mice [1], the “immobility time, tail suspension test, treated vs basal” value is reported as “decrease in immobility time”.

As for “miR-135a: mature miR-135a, Accession No. MIMAT0000428 (SEQ ID NO: 61); tested via overexpressing vector (SEQ ID NO: 210) (UAUGGCUUUUUAUUCCUAUGUGA; listed as Homo sapiens)”, the “repression of Slc6a4 3′UTR (luciferase)” value in the data set with Slc6a4 3′UTR was “approximately 30%”. Also, in the data set with Htr1a 3′UTR, the “repression of Htr1a 3′UTR (luciferase)” value is listed as “approximately 30%”; the “seed match through which Htr1a 3′UTR is repressed” value was “via the distal and not the proximal seed match”.

Consider `CN(C)CCCN1c2ccccc2CCc2ccccc21` [Imipramine], for which the “miR-135a expression levels in the RN” value is “increased” with miR-135a (20 mg/kg) and “significantly increased” in the data set with miR-135a (listed as imipramine, 20 mg/kg). Besides, the “miR-135b expression levels in the RN” value in the data set with miR-135b is “increased”. Besides, in the data set with mice [2], the “social avoidance (interaction ratio)” value is reported as “not those who received imipramine developed social avoidance”.

On to `CCOc1ccccc1OC(c1ccccc1)C1CNCCO1` (stereo not drawn) [Reboxetine], for which the “miR-135a expression levels in the RN” value with miR-135a was “no differences”. In the data set with miR-19a/b (acute), the “miR-19 a/b levels in the PFC, acute administration” value was “down regulated”. Moreover, the “miR-19 a/b levels in the PFC, chronic administration” value in the data set on miR-19a/b (chronic) is “upregulated”.

As for “miR-135b: mature miR-135b, Accession No. MIMAT0000758 (SEQ ID NO: 62); tested via overexpressing vector (SEQ ID NO: 211) (UAUGGCUUUUCAUUCCUAUGUGA; listed as Homo sapiens)”, in the data set on Slc6a4 3′UTR, the “repression of Slc6a4 3′UTR (luciferase)” value is given as “approximately 50%”. Besides, in the data set on Htr1a 3′UTR, the “repression of Htr1a 3′UTR (luciferase)” value is “approximately 50%” and the “seed match through which Htr1a 3′UTR is repressed” value is reported as “via both predicted sites”.

(Values after patent US10125365B2, “Micro-RNAs and compositions comprising same for the treatment and diagnosis of serotonin-, adrenalin-, noradrenalin-, glutamate-, and corticotropin-releasing hormone- associated medical conditions” (Yeda Research and Development Co. Ltd., priority 2014, dated 2018).)
